Biological target: ATR (Homo sapiens (Human), UniProt Q13535)
Assay: Cellular ATR inhibition, western blot of CHK1(S345) phosphorylation in hydroxyurea treated cells
Assay type: cell-based
Conditions: HT29 cells, hydroxyurea 2.5 mM
Procedure: In addition to the selective system described above, Example compounds presented here were screened for their ability to inhibit intracellular ATR using a western blot assay to detect phosphorylation of the ATR substrate CHK1(S345) in hydroxyurea treated cells. HT29 cells are plated at 500,000 cells per well in 6-well plates in RPMI media (Sigma R6504) supplemented with 10% foetal bovine serum (Sigma F7524), Penicillin/Streptomycin solution diluted 1:100 (Gibco 15070-063), and fungizone (Gibco, 15290-018), and allowed to adhere overnight at 37° C. in 5% CO2. Compounds are then added to the cell media from a final concentration of 10 μM in 3-fold serial dilutions and the cells are incubated at 37° C. in 5% CO2. After 15 min, hydroxyurea (Sigma H8627) is added to a final concentration of 2.5 mM. After 30 min of treatment with hydroxyurea, the cells are washed in PBS, lysed adding 50 μl of in protein lysis buffer (50 mM Tris pH 7.5, 150 mM NaCl, 1% IGEPAL CO-630 (Sigma, Ref. 542334-100G-A), Phospho Stop (Roche, Ref. 04906837001) and Complete Mini EDTA free (Roche, Ref. 11836170001)). The protein content of the lysates was determined by the modified method of Bradford (Sigma, Ref. B6916). The proteins were resolved by SDS-PAGE and transferred to nitrocellulose membrane (VWR International Eurolab, Ref. 732-4007). The membranes were incubated overnight at 4° C. with antibodies specific for total CHK1 (Santa Cruz Biotechnology, sc-8404), phosphoserine-345 CHK1 (Cell Signaling Technology #2348) they were washed and then incubated with IRDye800 conjugated anti-mouse (Pierce/Cultek, 35521) and Alexa Fluor 680 goat anti-rabbit IgG secondary antibodies (Invitrogen, A21076). The bands were visualized and quantified using an Odyssey infrared imaging system (Li-Cor Biosciences). The percentage of phosphorylated CHK1 vs total CHK1 in cells treated with hydroxyurea was taken as hundred percent of phosphorylation. The percentage of CHK1 phosphorylation is finally plotted against concentration for each compound and EC50s for intracellular ATR inhibition are calculated using ActivityBase from IDBS.

Chain of ATR (Q13535 whole entry): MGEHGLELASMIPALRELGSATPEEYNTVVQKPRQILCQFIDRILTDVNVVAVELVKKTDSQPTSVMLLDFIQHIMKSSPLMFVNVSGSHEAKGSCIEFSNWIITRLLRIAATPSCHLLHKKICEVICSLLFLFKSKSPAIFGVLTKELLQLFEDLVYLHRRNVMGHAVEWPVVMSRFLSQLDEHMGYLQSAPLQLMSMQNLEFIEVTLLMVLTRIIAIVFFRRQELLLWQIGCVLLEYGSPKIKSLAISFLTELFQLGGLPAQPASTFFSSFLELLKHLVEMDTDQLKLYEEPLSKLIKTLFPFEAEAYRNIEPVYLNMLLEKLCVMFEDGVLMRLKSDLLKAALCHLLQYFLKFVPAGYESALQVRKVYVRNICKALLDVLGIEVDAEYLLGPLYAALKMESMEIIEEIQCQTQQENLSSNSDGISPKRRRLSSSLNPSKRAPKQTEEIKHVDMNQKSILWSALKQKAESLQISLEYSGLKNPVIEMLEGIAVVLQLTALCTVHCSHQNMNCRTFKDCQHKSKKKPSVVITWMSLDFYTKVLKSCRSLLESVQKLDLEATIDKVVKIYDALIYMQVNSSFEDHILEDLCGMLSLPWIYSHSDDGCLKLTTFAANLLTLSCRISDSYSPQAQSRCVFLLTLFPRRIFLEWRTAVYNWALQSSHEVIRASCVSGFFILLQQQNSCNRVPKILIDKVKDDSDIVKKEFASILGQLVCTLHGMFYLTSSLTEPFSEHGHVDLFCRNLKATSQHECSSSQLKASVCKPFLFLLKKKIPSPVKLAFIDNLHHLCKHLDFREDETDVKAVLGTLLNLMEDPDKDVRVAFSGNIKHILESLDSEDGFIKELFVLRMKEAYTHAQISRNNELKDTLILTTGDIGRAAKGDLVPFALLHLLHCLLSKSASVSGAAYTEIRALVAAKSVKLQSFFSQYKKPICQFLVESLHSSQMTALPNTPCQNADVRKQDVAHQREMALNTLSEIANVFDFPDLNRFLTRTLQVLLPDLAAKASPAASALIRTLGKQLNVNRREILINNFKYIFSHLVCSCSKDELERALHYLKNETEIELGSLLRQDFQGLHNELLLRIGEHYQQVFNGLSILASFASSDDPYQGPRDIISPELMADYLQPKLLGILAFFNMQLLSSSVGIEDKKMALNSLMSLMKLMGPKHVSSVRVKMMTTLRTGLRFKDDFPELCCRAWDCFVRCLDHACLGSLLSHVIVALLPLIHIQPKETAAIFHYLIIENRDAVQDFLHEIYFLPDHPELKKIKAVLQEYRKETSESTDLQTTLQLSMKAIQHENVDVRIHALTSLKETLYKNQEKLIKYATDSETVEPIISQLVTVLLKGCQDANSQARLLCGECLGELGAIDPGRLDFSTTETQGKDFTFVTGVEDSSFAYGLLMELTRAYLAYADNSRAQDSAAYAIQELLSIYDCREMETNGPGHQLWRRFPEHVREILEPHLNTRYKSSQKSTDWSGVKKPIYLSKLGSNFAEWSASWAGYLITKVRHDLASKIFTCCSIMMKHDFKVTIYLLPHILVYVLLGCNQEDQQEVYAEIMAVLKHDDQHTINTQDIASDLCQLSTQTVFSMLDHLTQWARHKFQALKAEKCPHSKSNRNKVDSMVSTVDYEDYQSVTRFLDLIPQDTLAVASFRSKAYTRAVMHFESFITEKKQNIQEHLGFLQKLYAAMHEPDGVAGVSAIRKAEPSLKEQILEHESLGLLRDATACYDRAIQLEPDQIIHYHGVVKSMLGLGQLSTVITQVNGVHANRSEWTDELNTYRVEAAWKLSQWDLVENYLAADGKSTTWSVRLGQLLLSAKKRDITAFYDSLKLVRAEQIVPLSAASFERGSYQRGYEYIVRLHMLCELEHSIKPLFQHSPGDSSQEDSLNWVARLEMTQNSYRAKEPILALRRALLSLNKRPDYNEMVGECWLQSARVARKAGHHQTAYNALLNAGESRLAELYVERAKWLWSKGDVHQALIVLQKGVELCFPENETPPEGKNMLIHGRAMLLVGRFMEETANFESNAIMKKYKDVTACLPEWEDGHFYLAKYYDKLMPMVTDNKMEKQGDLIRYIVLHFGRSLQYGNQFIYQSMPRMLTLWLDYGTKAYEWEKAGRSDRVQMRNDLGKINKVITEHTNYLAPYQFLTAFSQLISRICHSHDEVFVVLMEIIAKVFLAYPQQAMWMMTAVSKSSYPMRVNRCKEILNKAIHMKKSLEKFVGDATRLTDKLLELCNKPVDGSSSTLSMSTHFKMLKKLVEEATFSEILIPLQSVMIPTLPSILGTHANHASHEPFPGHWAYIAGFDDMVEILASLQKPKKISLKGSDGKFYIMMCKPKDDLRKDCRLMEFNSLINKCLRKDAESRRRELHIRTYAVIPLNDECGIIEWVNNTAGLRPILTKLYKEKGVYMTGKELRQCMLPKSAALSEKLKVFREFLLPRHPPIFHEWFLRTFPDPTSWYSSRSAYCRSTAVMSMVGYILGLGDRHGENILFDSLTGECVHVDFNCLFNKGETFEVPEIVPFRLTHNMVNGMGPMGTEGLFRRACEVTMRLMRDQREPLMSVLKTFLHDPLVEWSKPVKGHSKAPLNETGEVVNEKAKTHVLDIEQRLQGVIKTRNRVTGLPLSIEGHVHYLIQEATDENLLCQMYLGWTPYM

Compound | EC50 [µM]
CCCNc1nc2ccccc2n1-c1nc2c(c(C(C)(C)S(C)(=O)=O)n1)OC[C@@H]1COCCN21 [Example 65] | < 0.1
CC(C)(c1nc(-c2cccc3[nH]ccc23)nc2c1OCC[C@H]1COCCN21)S(C)(=O)=O [Example 24] | 0.1 to 1
CCNc1nc2ccccc2n1-c1nc2c(c(C(C)(C)S(C)(=O)=O)n1)OC[C@@H]1COCCN21 [Example 64] | 0.1 to 1
CNc1nc2ccccc2n1-c1nc2c(c(C3(S(C)(=O)=O)CCOCC3)n1)OCCC1COCCN21 (stereo not drawn) [Example 32] | > 1
CS(=O)(=O)C1(c2nc(-c3cncc4[nH]ccc34)nc3c2OCC2COCCN32)CCOCC1 (stereo not drawn) [Example 9] | 0.1 to 1
CS(=O)(=O)C1(c2nc(-c3cccc4[nH]ccc34)nc3c2OC[C@@H]2COCCN32)CCC1 [Example 67] | < 0.1
CC(C)(c1nc(-c2cccc3[nH]ccc23)nc2c1OCC[C@@H]1COCCN21)S(C)(=O)=O [Example 25] | 0.1 to 1
CCOC(=O)N1CCC(c2nc(-c3cccc4[nH]ccc34)nc3c2OC[C@@H]2COCCN32)(S(C)(=O)=O)CC1 [Example 68] | 0.1 to 1
CC(C)(c1nc(-c2cccc3[nH]ccc23)nc2c1OCC1COCCN21)S(=O)(=O)C1CC1 (stereo not drawn) [Example 4] | < 0.1
CNc1nc2ccccc2n1-c1nc2c(c(C(C)(C)[S@TB1](C)(=O)=O)n1)OCCC1COCCN21 (stereo not drawn) [Example 31] | < 0.1
CC(C)(C#N)c1nc(-c2cccc3[nH]ccc23)nc2c1OCC1COCCN21 (stereo not drawn) [Example 40] | 0.1 to 1
COc1cc(-c2nc3c(c(C4([S@TB1](C)(=O)=O)CCOCC4)n2)OCCC2COCCN32)c2cc[nH]c2c1 (stereo not drawn) [Example 34] | 0.1 to 1
CS(=O)(=O)C1(c2nc(-c3ccnc4[nH]ccc34)nc3c2OCC2COCCN32)CCOCC1 (stereo not drawn) [Example 18] | < 0.1
CC(C)(c1nc(-c2ccnc3[nH]ccc23)nc2c1OCC1COCCN21)S(C)(=O)=O (stereo not drawn) [Example 16] | 0.1 to 1
CS(=O)(=O)C1(c2nc(-c3ccc(F)c4[nH]ccc34)nc3c2OC[C@@H]2COCCN32)CCC1 [Example 76] | > 1
CC(C)(O)c1nc(-c2cc(F)cc3[nH]ccc23)nc2c1OC[C@@H]1COCCN21 [Example 45] | 0.1 to 1
COc1cc(-c2nc3c(c(C4(S(C)(=O)=O)CCC4)n2)OC[C@@H]2COCCN32)c2cc[nH]c2c1 [Example 78] | < 0.1
CS(=O)(=O)C1(c2nc(-c3cccc4[nH]ccc34)nc3c2OC[C@@H]2COCCN32)CCNCC1 [Example 69] | 0.1 to 1
CS(=O)(=O)C1(c2nc(-c3cc(F)cc4[nH]ccc34)nc3c2OCC2COCCN32)CCOCC1 (stereo not drawn) [Example 17] | < 0.1
Cc1cc2c(-c3nc4c(c(C5(S(C)(=O)=O)CCOCC5)n3)OCC3COCCN43)cccc2[nH]1 (stereo not drawn) [Example 20] | 0.1 to 1
CNc1nc2ccccc2n1-c1nc2c(c(C(C)(C)O)n1)OCC1COCCN21 (stereo not drawn) [Example 39] | 0.1 to 1

Same assay, conditions: HT29 cells, hydroxyurea […]

Compound | EC50 [µM]
CNc1nc2cc(C#N)ccc2n1-c1nc2c(c(C(C)(C)S(C)(=O)=O)n1)OC[C@@H]1COCCN21 [Example 113] | > 1

Biological target: mTOR (Homo sapiens (Human), UniProt P42345)
Assay: mTOR activity assay (LanthaScreen)
Assay type: biochemical
Conditions: not given
Procedure: The enzymatic mTOR activity was measured using a LanthaScreen™ kinase activity assay (Invitrogen). The enzyme was purchased from Invitrogen (PV4754), as well as the GFP-labelled substrate (4EBP1-GFP; PV4759) and the Tb-antip4EBP1(pThr46) antibody (PV4757). The assay was performed in 50 Mm HEPES buffer, pH 7.5, containing 1.5 mM MnCl2, 10 mM MgCl2, 1 mM EGTA, 2.5 mM DTT and 0.01% Tween-20. The concentration of the assay components were the following: 0.24 nM mTOR kinase, 400 nM 4EBP1-GFP, […] and serial dilutions of the compound (inhibitor) to be evaluated. After 1 h incubation at room temperature, 20 mM EDTA was used to stop the reaction and terbium-labelled antibody (4 nM) added to detect phosphorylated product. The antibody associates with the phosphorylated product resulting in an increased TR-FRET value. The TR-FRET value (a dimensionless number) was calculated as the ratio of the acceptor signal (GFP, emission at 520 nm) to the donor signal (terbium, emission at 495 nm).

Compound | IC50 [µM]
CC(C)(c1nc(-c2cccc3[nH]ccc23)nc2c1OCC[C@@H]1COCCN21)S(C)(=O)=O [Example 25] | 0.582
COc1cc(-c2nc3c(c(C4(S(C)(=O)=O)CCC4)n2)OC[C@@H]2COCCN32)c2cc[nH]c2c1 [Example 78] | 0.047

Biological target: PI3K (p110α/p85α) (Homo sapiens (Human), UniProt P42336)
Assay: PI3K alpha activity assay (ADP Hunter Plus)
Assay type: biochemical
Conditions: 50 μM ATP, 30 μM PIP2; read-out: PI3Kα IC50
Procedure: The kinase activity was measured by using the commercial ADP Hunter™ Plus assay available from DiscoveRx (#33-016), which is a homogeneous assay to measure the accumulation of ADP, a universal product of kinase activity. […] The reaction was carried out for 1 hour at 25° C. Reagent A and B were sequentially added to the wells and plates were incubated for 30 min at 37° C. Fluorescence counts were read in a Victor instrument (Perkin Elmer) with the recommended settings (544 and 580 nm as excitation and emission wavelengths, respectively).

Chain of PI3K (p110α/p85α) (P42336 whole entry): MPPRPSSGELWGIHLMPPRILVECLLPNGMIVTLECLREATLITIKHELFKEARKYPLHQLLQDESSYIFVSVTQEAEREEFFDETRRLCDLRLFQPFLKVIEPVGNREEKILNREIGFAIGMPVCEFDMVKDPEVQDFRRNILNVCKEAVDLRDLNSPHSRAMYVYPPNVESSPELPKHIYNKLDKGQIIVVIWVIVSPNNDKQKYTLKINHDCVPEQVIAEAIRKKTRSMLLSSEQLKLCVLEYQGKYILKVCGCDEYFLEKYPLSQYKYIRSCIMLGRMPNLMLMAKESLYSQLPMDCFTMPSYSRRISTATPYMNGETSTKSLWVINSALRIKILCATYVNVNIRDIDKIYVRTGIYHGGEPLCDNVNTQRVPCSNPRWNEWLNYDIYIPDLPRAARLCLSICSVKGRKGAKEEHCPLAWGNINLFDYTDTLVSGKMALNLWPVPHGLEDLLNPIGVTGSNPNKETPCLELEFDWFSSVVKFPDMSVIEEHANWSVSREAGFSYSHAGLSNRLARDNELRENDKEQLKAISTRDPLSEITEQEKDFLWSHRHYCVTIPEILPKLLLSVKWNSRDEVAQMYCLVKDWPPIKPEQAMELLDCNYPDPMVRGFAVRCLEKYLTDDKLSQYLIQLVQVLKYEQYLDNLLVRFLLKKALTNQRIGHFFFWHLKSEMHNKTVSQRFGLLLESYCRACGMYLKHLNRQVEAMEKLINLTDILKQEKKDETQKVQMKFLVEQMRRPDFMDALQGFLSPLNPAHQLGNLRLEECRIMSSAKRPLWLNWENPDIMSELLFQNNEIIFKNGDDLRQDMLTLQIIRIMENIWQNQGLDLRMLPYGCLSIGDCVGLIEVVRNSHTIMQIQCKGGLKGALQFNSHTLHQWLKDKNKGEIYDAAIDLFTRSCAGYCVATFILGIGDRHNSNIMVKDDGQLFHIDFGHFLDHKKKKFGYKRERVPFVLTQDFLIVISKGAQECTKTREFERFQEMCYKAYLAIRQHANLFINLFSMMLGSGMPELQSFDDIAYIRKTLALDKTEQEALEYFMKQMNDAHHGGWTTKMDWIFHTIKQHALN
Chain of PI3K (p110α/p85α) (P27986 whole entry partner): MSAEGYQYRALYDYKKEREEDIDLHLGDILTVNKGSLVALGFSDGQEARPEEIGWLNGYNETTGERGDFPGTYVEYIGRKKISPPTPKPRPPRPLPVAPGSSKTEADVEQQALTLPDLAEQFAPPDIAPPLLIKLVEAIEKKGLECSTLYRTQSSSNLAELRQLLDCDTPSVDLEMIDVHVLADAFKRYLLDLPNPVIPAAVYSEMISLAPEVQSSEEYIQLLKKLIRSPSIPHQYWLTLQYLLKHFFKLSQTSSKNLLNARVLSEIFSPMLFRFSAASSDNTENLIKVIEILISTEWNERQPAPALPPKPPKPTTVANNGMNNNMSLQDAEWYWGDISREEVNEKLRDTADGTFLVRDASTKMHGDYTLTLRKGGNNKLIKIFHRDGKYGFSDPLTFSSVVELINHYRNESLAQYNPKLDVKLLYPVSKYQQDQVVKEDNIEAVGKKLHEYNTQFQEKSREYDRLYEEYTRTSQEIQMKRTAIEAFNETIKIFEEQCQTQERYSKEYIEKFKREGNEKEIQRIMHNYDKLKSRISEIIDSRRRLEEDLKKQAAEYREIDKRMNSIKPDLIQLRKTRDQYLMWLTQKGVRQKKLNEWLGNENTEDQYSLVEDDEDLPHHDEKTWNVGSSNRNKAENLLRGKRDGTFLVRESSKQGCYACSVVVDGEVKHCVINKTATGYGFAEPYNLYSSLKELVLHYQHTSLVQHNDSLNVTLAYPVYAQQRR

Compound | IC50 [µM]
CC(C)(c1nc(-c2cccc3[nH]ccc23)nc2c1OCC[C@@H]1COCCN21)S(C)(=O)=O [Example 25] | 23.4
CS(=O)(=O)C1(c2nc(-c3ccc(F)c4[nH]ccc34)nc3c2OC[C@@H]2COCCN32)CCC1 [Example 76] | 50
COc1cc(-c2nc3c(c(C4(S(C)(=O)=O)CCC4)n2)OC[C@@H]2COCCN32)c2cc[nH]c2c1 [Example 78] | 4.49
